Source: patent US9434711B2 (Janssen Pharmaceutica, NV, priority 2007, dated 2016)

Target: canine TRPM8 (Canis lupus familiaris, UniProt Q1A7N1)
Assay: In Vitro Canine TRPM8 Functional Assay (Ca2+ fluorescence, icilin activation)
Type: cell-based
Conditions: for IC50: HEK293 cells stably expressing canine TRPM8, icilin activation, eight-point dose-response, read-out: IC50; for inhibition at 0.2 µM / % Inh @ 0.2 (μM): compound at 0.2 μM, canine TRPM8, icilin activation; for inhibition at 0.2 µM: read-out: % Inh @ 0.2
How it was run: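 Eight-point dose-response curves, each point averaging quadruplicate wells, gave EC50 or IC50. Canine TRPM8-expressing HEK293 cells, dye-loaded (Calcium 3), were pre-exposed 5 min to compound, then challenged with icilin at roughly EC80; intracellular Ca2+ read by FLIPR or FDSS fluorescence.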

Sequence of canine TRPM8 (Q1A7N1 1-1104): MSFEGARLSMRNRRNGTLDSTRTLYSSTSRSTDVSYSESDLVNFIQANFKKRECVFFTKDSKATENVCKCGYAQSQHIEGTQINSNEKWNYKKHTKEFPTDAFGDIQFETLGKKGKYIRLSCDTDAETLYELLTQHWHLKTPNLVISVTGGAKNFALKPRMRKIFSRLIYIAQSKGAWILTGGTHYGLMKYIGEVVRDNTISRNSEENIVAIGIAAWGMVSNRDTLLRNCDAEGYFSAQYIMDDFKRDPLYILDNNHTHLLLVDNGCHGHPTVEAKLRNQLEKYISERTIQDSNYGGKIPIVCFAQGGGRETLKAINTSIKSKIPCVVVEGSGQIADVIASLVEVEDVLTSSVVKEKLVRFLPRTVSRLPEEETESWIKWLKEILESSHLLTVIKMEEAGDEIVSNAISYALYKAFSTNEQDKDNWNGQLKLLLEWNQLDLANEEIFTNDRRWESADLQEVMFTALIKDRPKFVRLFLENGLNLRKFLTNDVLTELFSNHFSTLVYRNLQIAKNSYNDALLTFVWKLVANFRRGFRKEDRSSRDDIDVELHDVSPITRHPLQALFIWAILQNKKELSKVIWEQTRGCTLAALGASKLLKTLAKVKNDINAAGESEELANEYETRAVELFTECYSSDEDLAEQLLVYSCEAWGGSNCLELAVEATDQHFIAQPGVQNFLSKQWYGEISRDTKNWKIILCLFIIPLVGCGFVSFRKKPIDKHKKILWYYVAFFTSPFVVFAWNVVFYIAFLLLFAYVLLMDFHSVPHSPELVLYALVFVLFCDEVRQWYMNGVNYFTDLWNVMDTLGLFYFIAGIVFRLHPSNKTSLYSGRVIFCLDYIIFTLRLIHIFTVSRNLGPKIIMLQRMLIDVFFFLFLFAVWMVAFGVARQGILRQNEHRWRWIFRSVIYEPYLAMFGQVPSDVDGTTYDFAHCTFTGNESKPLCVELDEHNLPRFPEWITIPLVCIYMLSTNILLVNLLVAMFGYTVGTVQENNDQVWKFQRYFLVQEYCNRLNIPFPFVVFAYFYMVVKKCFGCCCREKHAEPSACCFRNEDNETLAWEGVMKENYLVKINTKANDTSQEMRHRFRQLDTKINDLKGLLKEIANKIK

IC50 [nM] | inhibition at 0.2 µM [%] | Structure (SMILES) | % Inh @ 0.2 (μM) [%]
23.4 | 101 | CC1=C(N(CCCC(F)(F)F)S(=O)(=O)c2ccccc2)S(=O)(=O)c2ccccc21 [Compound 620, N-(3-Methyl-1,1-dioxo-benzo[b]thiophen-2-yl)-N-(4,4,4-trifluoro-butyl)-benzenesulfonamide] | –
11 | 101 | CC1=C(N(CCCCC(F)(F)F)S(=O)(=O)c2ccccc2)S(=O)(=O)c2ccccc21 [Compound 621, N-(3-Methyl-1,1-dioxo-benzo[b]thiophen-2-yl)-N-(5,5,5-trifluoro-pentyl)-benzenesulfonamide] | –
31.3 | 89 | CC1=C(N(Cc2ccc(F)c(C(F)(F)F)c2)S(=O)(=O)c2ccccc2)S(=O)(=O)c2ccccc21 [Compound 622, N-(4-Fluoro-3-trifluoromethyl-benzyl)-N-(3-methyl-1,1-dioxo-benzo[b]thiophen-2-yl)-benzenesulfonamide] | –
7 | 101 | Cc1c(N(Cc2ccc(F)c(C(F)(F)F)c2)S(=O)(=O)c2ccc(C(=O)NS(C)(=O)=O)cc2)sc2ccccc12 [Compound 623, N-(3-Methyl-benzo[b]thiophen-2-yl)-N-(4-fluoro-3-trifluoromethyl-benzyl)-4-methanesulfonylaminocarbonyl-benzenesulfonamide] | –
26.2 | 103 | COC(=O)c1ccc(S(=O)(=O)N(CCC(F)(F)F)c2sc3ccccc3c2C)cc1 [Compound 629, N-(3-Methyl-benzo[b]thiophen-2-yl)-N-(3,3,3-trifluoro-propyl)-4-carbomethoxy-benzenesulfonamide] | –
– | 12 | CC1=C(N(CCC2CC2)S(=O)(=O)c2ccc(C(=O)O)cc2)S(=O)(=O)c2ccccc21 [Compound 632, N-(2-Cyclopropyl-ethyl)-N-(3-methyl-1,1-dioxo-benzo[b]thiophen-2-yl)-4-carboxy-benzenesulfonamide] | –
– | 17 | CC1=C(N(CCCCC(F)(F)F)S(=O)(=O)c2ccc(C(=O)O)cc2)S(=O)(=O)c2ccccc21 [Compound 633, N-(3-Methyl-1,1-dioxo-benzo[b]thiophen-2-yl)-N-(5,5,5-trifluoro-pentyl)-4-carboxy-benzenesulfonamide] | –
– | 55 | CC1=C(N(Cc2ccc(F)c(C(F)(F)F)c2)S(=O)(=O)c2ccc(C(=O)O)cc2)S(=O)(=O)c2ccccc21 [Compound 634, N-(4-Fluoro-3-trifluoromethyl-benzyl)-N-(3-methyl-1,1-dioxo-benzo[b]thiophen-2-yl)-4-carboxy-benzenesulfonamide] | –
12.2 | 104 | Cc1c(N(CCC(F)(F)F)S(=O)(=O)c2ccc(-c3nsc(=O)[nH]3)cc2)sc2ccccc12 [Compound 637, N-(3-Methyl-benzo[b]thiophen-2-yl)-N-(3,3,3-trifluoro-propyl)-4-(5-oxo-4,5-dihydro-[1,2,4]thiadiazol-3-yl)-benzenesulfonamide] | –
11 | 103 | Cc1c(N(CCCCC(F)(F)F)S(=O)(=O)c2ccc(-c3nsc(=O)[nH]3)cc2)sc2ccccc12 [Compound 640, N-(3-Methyl-benzo[b]thiophen-2-yl)-N-(5,5,5-trifluoro-pentyl)-4-(5-oxo-4,5-dihydro-[1,2,4]thiadiazol-3-yl)-benzenesulfonamide] | –
5 | 103 | CN(C)C1=C(N(CCC2CC2)S(=O)(=O)c2ccccc2)S(=O)(=O)c2ccccc21 [Compound 643, N-(2-Cyclopropylethyl)-N-(3-dimethylamino-1,1-dioxo-1H-benzo[b]thiophen-2-yl)-benzenesulfonamide] | –
– | 63 | CNC1=C(N(CCC2CC2)S(=O)(=O)c2ccccc2)S(=O)(=O)c2ccccc21 [Compound 644, N-(2-Cyclopropylethyl)-N-(3-methylamino-1,1-dioxo-1H-benzo[b]thiophen-2-yl)-benzenesulfonamide] | –
– | 20 | CN1CCN(C2=C(N(CCC3CC3)S(=O)(=O)c3ccccc3)S(=O)(=O)c3ccccc32)CC1 [Compound 645, N-(2-Cyclopropyl-ethyl)-N-[3-(4-methyl-piperazin-1-yl)-1,1-dioxo-1H-1λ^6-benzo[b]thiophen-2-yl]-benzenesulfonamide] | –
– | 55 | NC1=C(N(CCC2CC2)S(=O)(=O)c2ccccc2)S(=O)(=O)c2ccccc21 [Compound 646, N-(3-Amino-1,1-dioxo-1H-benzo[b]thiophen-2-yl)-N-(2-cyclopropylethyl)-benzenesulfonamide] | –
– | 21 | O=S1(=O)C(N(CCC2CC2)S(=O)(=O)c2ccccc2)=C(N2CCNCC2)c2ccccc21 [Compound 647, N-(2-Cyclopropyl-ethyl)-N-(1,1-dioxo-3-piperazin-1-yl-1H-1λ^6-benzo[b]thiophen-2-yl)-benzenesulfonamide] | –
– | 62 | CNC1=C(N(Cc2ccc(F)c(C(F)(F)F)c2)S(=O)(=O)c2ccccc2)S(=O)(=O)c2ccccc21 [Compound 648, N-(4-Fluoro-3-trifluoromethyl-benzyl)-N-(3-methylamino-1,1-dioxo-1H-1λ^6-benzo[b]thiophen-2-yl)-benzenesulfonamide] | –
– | 26 | CN1CCN(C2=C(N(Cc3ccc(F)c(C(F)(F)F)c3)S(=O)(=O)c3ccccc3)S(=O)(=O)c3ccccc32)CC1 [Compound 649, N-(4-Fluoro-3-trifluoromethyl-benzyl)-N-[3-(4-methyl-piperazin-1-yl)-1,1-dioxo-benzo[b]thiophen-2-yl]-benzenesulfonamide] | –
4 | 102 | Nc1ccc(S(=O)(=O)N(Cc2ccc(F)c(C(F)(F)F)c2)c2sc3ccccc3c2Br)cc1 [Compound 650, 4-Amino-N-(3-bromo-benzo[b]thiophen-2-yl)-N-(4-fluoro-3-trifluoromethyl-benzyl)-benzenesulfonamide] | –

Further lines, the compound ahead of its results:

Structure (SMILES) | IC50 [nM] | inhibition at 0.2 µM [%] | % Inh @ 0.2 (μM) [%]
O=S1NC(c2ccc(S(=O)(=O)N(CCC3CC3)c3sc4ccccc4c3Br)cc2)=NO1 (centres unmarked) [Compound 624, N-(3-Bromo-benzo[b]thiophen-2-yl)-N-(cyclopropyl-ethyl)-4-(3H-[1,2,3,5]oxathiadiazole-2-oxide)-benzenesulfonamide] | 13.4 | – | 103
O=S1NC(c2ccc(S(=O)(=O)N(CCC3CC3)c3sc4ccccc4c3Cl)cc2)=NO1 (centres unmarked) [Compound 625, N-(3-Chloro-benzo[b]thiophen-2-yl)-N-(cyclopropyl-ethyl)-4-(3H-[1,2,3,5]oxathiadiazole-2-oxide)-benzenesulfonamide] | 20.4 | – | 103
O=c1[nH]c(-c2ccc(S(=O)(=O)N(CCC3CC3)c3sc4ccccc4c3Br)cc2)no1 [Compound 626, N-(3-Bromo-benzo[b]thiophen-2-yl)-N-(cyclopropyl-ethyl)-4-(5-oxo-4,5-dihydro-[1,2,4]oxadiazol-3-yl)-benzenesulfonamide] | 7.4 | 103 | –
O=c1[nH]c(-c2ccc(S(=O)(=O)N(CCC3CC3)c3sc4ccccc4c3Cl)cc2)no1 [Compound 627, N-(3-Chloro-benzo[b]thiophen-2-yl)-N-(cyclopropyl-ethyl)-4-(5-oxo-4,5-dihydro-[1,2,4]oxadiazol-3-yl)-benzenesulfonamide] | 8.6 | 103 | –
COC(=O)c1ccc(S(=O)(=O)N(CCC2CC2)c2sc3ccccc3c2C)cc1 [Compound 628, N-(2-Cyclopropyl-ethyl)-N-(3-methyl-benzo[b]thiophen-2-yl)-4-carbomethoxy-benzenesulfonamide] | 23.3 | 103 | –
COC(=O)c1ccc(S(=O)(=O)N(CCCC(F)(F)F)c2sc3ccccc3c2C)cc1 [Compound 630, N-(3-Methyl-benzo[b]thiophen-2-yl)-N-(4,4,4-trifluoro-butyl)-4-carbomethoxy-benzenesulfonamide] | 35.6 | 103 | –
COC(=O)c1ccc(S(=O)(=O)N(CCCCC(F)(F)F)c2sc3ccccc3c2C)cc1 [Compound 631, N-(3-Methyl-benzo[b]thiophen-2-yl)-N-(5,5,5-trifluoro-pentyl)-4-carbomethoxy-benzenesulfonamide] | 26.3 | 103 | –
O=S(=O)(c1ccc(-c2nnn[nH]2)cc1)N(CCC1CC1)c1sc2ccccc2c1Cl [Compound 635, N-(3-Chloro-benzo[b]thiophen-2-yl)-N-(2-cyclopropyl-ethyl)-4-(1H-tetrazol-5-yl)-benzenesulfonamide] | 7.4 | 101 | –
O=S(=O)(c1ccc(-c2nnn[nH]2)cc1)N(CCC(F)(F)F)c1sc2ccccc2c1Cl [Compound 636, N-(3-Chloro-benzo[b]thiophen-2-yl)-N-(3,3,3-trifluoro-propyl)-4-(1H-tetrazol-5-yl)-benzenesulfonamide] | 46 | 103 | –
O=C(O)c1ccc(S(=O)(=O)N(CCC2CC2)c2cc3ccccc3s2)c(F)c1 [Compound 638, N-(3-Benzo[b]thiophen-2-yl)-N-(2-cyclopropyl-ethyl)-2-fluoro-4-carboxy-benzenesulfonamide] | 60 | – | 100
O=C(O)c1ccc(S(=O)(=O)N(CCC(F)(F)F)c2cc3ccccc3s2)c(F)c1 [Compound 639, N-(3-Benzo[b]thiophen-2-yl)-N-(3,3,3-trifluoro-propyl)-2-fluoro-4-carboxy-benzenesulfonamide] | 128 | – | 84
Cc1c(N(CCC2CC2)S(=O)(=O)c2ccc(-c3nsc(=O)[nH]3)cc2)sc2ccccc12 [Compound 641, N-(3-Methyl-benzo[b]thiophen-2-yl)-N-(cyclopropyl-ethyl)-4-(5-oxo-4,5-dihydro-[1,2,4]thiadiazol-3-yl)-benzenesulfonamide] | 14 | 103 | –
O=c1[nH]c(-c2ccc(S(=O)(=O)N(CCC3CC3)c3cc4ccccc4s3)cc2)ns1 [Compound 642, N-(Benzo[b]thiophen-2-yl)-N-(cyclopropyl-ethyl)-4-(5-oxo-4,5-dihydro-[1,2,4]thiadiazol-3-yl)-benzenesulfonamide] | 41 | 90 | –
